Assay results published in ChEMBL document CHEMBL4002630, “The design and synthesis of novel spirocyclic heterocyclic sulfone ROMK inhibitors as diuretics” (Bioorg Med Chem Lett, 2017).

Assays:
Rattus norvegicus [1] = experiment: Antihypertensive activity in rat spontaneous hypertensive model assessed as change in systolic blood pressure at 3 mg/kg, po measured after 3 days; type: functional
[2] = molecular target: T1, ATP-sensitive inward rectifier potassium channel 1 (Rattus norvegicus, UniProt P35560); experiment: Inhibition of rat ROMK expressed in HEK293 cells after 30 mins by thallium flux assay; type: cell-based
T1 sequence (P35560 whole entry): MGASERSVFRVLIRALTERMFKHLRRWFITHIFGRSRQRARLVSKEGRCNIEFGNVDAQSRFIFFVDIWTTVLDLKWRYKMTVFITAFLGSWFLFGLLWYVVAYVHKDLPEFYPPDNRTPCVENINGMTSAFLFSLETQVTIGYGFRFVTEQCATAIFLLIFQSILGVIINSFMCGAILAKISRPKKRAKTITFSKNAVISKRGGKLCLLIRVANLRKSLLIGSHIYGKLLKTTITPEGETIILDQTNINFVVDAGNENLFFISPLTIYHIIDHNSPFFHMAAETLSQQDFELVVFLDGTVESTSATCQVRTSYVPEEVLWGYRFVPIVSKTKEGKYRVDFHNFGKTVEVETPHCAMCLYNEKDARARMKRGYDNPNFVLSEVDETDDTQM

[3] = Drug uptake in plasma of rat spontaneous hypertensive model at 3 mg/kg, po measured after 3 days; type: ADME, organism-based; details: spontaneously hypertensive rat
in vivo [4] = details: rat
Rattus norvegicus [5] = organism: Rattus norvegicus; details: in vivo, iv, 0.5 mg/kg
in vivo [6] = details: rat, iv, 0.5 mg/kg
in vivo [7] = details: rat, po, 1 mg/kg
Rattus norvegicus [8] = organism: Rattus norvegicus; details: in vivo, po, 1 mg/kg
[9] = molecular target: T2, ATP-sensitive inward rectifier potassium channel 1 (Homo sapiens, UniProt P48048); experiment: Inhibition of human ROMK expressed in CHO cells by electrophysiology method; type: cell-based
T2 sequence (P48048 whole entry): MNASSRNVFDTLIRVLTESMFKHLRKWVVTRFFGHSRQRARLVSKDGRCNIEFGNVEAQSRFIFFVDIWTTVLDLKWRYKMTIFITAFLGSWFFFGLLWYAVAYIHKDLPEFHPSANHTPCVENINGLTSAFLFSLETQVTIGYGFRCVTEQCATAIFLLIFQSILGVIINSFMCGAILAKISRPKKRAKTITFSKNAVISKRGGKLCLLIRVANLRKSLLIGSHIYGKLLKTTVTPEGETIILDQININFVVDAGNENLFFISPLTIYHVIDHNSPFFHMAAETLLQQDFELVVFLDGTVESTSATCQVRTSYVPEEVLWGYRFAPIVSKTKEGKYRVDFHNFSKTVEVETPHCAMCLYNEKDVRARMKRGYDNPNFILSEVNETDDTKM

Rattus norvegicus [10] = experiment: Antihypertensive activity in rat spontaneous hypertensive model assessed as change in systolic blood pressure at 25 mg/kg, po measured after 3 days; type: functional
Homo sapiens [11] = organism: Homo sapiens; experiment: Selectivity ratio of IC50 for human ERG expressed in HEK293 cells to IC50 for human ROMK expressed in HEK293 cells; type: cell-based
Homo sapiens [12] = organism: Homo sapiens; experiment: Selectivity ratio of IC50 for human ERG to IC50 for human ROMK expressed in CHO cells by electrophysiology method; type: cell-based
[13] = molecular target: T3, Voltage-gated inwardly rectifying potassium channel KCNH2 (Homo sapiens, UniProt Q12809)
[14] = molecular target: T3, Voltage-gated inwardly rectifying potassium channel KCNH2; experiment: Inhibition of human ERG by electrophysiology method
[15] = molecular target: T2, ATP-sensitive inward rectifier potassium channel 1; experiment: Inhibition of human ROMK expressed in HEK293 cells after 30 mins by thallium flux assay; type: cell-based
[16] = Volume of distribution at steady state in dog at 0.5 mg/kg, iv; type: ADME, organism-based, Canis lupus familiaris; details: in vivo, read-out: Vdss
Canis familiaris = experiment: AUC (0 to t) in dog at 0.5 mg/kg, iv; type: ADME, organism-based, Canis lupus familiaris; details: in vivo
[17] = Half life in dog at 0.5 mg/kg, iv; type: ADME, organism-based, Canis lupus familiaris; details: in vivo
[18] = Drug excretion in urine of rat spontaneous hypertensive model at 3 mg/kg, po measured after 4 hrs; type: ADME, organism-based; details: spontaneously hypertensive rat, read-out: Drug excretion
[19] = Drug excretion in urine of rat spontaneous hypertensive model at 3 mg/kg, po measured after 24 hrs; type: ADME, organism-based; details: spontaneously hypertensive rat, read-out: Drug excretion
[20] = Clearance in dog at 1 mg/kg, po or 0.5 mg/kg, iv; type: ADME, organism-based, Canis lupus familiaris; details: in vivo
[21] = Half life in dog at 1 mg/kg, po or 0.5 mg/kg, iv; type: ADME, organism-based, Canis lupus familiaris; details: in vivo
[22] = Volume of distribution at steady state in rhesus monkey at 0.5 mg/kg, iv; type: ADME, organism-based, Macaca mulatta; details: in vivo, read-out: Vdss
Rhesus monkey = experiment: AUC (0 to t) in rhesus monkey at 0.5 mg/kg, iv; type: ADME, organism-based, Macaca mulatta; details: in vivo
[23] = Volume of distribution at steady state in dog at 1 mg/kg, po or 0.5 mg/kg, iv; type: ADME, organism-based, Canis lupus familiaris; details: in vivo, read-out: Vdss
[24] = Half life in rhesus monkey at 0.5 mg/kg, iv; type: ADME, organism-based, Macaca mulatta; details: in vivo
[25] = Oral bioavailability in dog at 1 mg/kg; type: ADME, organism-based, Canis lupus familiaris; details: in vivo
[26] = AUC (0 to t) in dog at 1 mg/kg, po; type: ADME, organism-based, Canis lupus familiaris; details: in vivo
in vivo [27] = details: rat, po, 1 mg/kg; remark: listed apart in the source

T3 sequence (Q12809 whole entry): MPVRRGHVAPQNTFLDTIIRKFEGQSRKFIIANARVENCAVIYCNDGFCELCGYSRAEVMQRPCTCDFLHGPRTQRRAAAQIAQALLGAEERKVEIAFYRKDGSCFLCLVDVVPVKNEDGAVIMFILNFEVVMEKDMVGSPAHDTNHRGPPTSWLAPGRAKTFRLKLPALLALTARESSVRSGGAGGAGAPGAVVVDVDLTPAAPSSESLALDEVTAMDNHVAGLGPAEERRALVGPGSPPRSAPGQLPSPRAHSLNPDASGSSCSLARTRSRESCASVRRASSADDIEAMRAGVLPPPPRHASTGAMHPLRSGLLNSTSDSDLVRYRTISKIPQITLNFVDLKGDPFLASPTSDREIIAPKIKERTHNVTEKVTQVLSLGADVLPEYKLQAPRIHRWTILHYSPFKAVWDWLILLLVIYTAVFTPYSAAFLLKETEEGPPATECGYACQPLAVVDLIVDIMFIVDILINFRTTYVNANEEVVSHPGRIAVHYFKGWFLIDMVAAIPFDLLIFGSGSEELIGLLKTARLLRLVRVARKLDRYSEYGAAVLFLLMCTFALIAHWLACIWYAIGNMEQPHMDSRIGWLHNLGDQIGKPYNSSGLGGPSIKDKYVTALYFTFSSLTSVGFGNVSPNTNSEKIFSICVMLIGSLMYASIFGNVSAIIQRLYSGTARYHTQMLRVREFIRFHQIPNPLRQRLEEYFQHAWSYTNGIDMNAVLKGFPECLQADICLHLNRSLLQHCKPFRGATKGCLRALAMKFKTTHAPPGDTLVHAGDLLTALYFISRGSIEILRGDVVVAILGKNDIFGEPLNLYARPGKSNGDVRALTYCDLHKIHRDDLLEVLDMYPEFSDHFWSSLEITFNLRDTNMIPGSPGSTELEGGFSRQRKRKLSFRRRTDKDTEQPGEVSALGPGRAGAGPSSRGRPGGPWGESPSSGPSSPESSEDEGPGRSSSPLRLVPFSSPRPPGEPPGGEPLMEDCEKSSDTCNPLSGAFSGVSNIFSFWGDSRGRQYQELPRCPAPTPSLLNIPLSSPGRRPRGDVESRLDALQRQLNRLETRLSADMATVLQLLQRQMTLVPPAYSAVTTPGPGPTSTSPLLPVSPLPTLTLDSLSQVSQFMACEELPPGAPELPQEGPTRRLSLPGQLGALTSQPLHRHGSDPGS

half-life (in vivo [4]) | clearance (Rattus norvegicus [5]) | Vd (in vivo [6]) | bioavailability (in vivo [7]) | AUC/dose (Rattus norvegicus [8]) | IC50 ([15]; read-out: IC50) | SMILES | Ratio IC50 (Homo sapiens [11]) | IC50 [13] | also measured
2.4 h | 30 mL/min/kg | 3.8 L/kg | 46% | 0.5 µM·kg·h/mg |  | Cc1c([C@@H](O)CN2CCC3(CC2)CC(=O)N(c2cnc(S(C)(=O)=O)cn2)C3)ccc2c1COC2=O |  |  | Activity (Rattus norvegicus [1]): -16 mmHg; IC50 [2]: 60 nM; concentration at 72 h [3]: 232 nM; IC50 [9]: 34 nM
2.1 h | 34 mL/min/kg | 4.3 L/kg | 48% | 0.5 µM·kg·h/mg |  | Cc1c([C@@H](O)CN2CCC3(CC2)CC(=O)N(c2ccc(S(C)(=O)=O)cn2)C3)ccc2c1COC2=O | 328 | 17400 nM | Activity (Rattus norvegicus [1]): -15.5 mmHg; IC50 [2]: 40 nM; concentration at 72 h [3]: 220 nM; Ratio IC50 (Homo sapiens [12]): 558; IC50 [9]: 43 nM; IC50 [14]: 24000 nM
 |  |  |  |  | 6400 nM | Cc1c([C@@H](O)CN2CCC3(CC2)CCN(c2ccc([S+](C)[O-])nc2)C3)ccc2c1COC2=O (some centres undefined) |  |  | 
 |  |  |  |  | 901 nM | CSc1ccc(N2CCC3(CCN(C[C@H](O)c4ccc5c(c4C)COC5=O)CC3)C2)cn1 |  |  | 
 |  |  |  |  | 47 nM | Cc1c([C@@H](O)CN2CCC3(CC2)CCN(c2ccc(C#N)cn2)CC3)ccc2c1COC2=O |  |  | 
2 h | 23 mL/min/kg | 2.8 L/kg | 96% | 0.7 µM·kg·h/mg | 226 nM | Cc1c([C@@H](O)CN2CCC3(CC2)CCN(c2ccc(S(C)(=O)=O)nc2)C3)ccc2c1COC2=O |  |  | Activity (Rattus norvegicus [1]): 0.1 mmHg; IC50 [2]: 240 nM; concentration at 4 h [18]: 26600 nM; concentration at 72 h [3]: 390 nM; concentration at 24 h [19]: 21200 nM; IC50 [9]: 50 nM
2.1 h | 37 mL/min/kg | 5.6 L/kg | 37% | 0.4 µM·kg·h/mg |  | Cc1c([C@@H](O)CN2CCC3(CC2)CCN(c2cnc(S(C)(=O)=O)cn2)C3)ccc2c1COC2=O | 202 | 8900 nM | clearance [20]: 42 mL/min/kg; Activity (Rattus norvegicus [1]): -19.9 mmHg; half-life [21]: 8.6 h; IC50 [2]: 40 nM; Vd [22]: 7 L/kg; AUCt (Rhesus monkey): 0.61 µM·h; concentration at 72 h [3]: 78 nM; Ratio IC50 (Homo sapiens [12]): 614; Vd [23]: 17.8 L/kg; half-life [24]: 1.8 h; bioavailability [25]: 67%; IC50 [9]: 37 nM; IC50 [14]: 22700 nM; AUC(0-t) [26]: 0.75 µM·h
 |  |  |  |  | 10 nM | Cc1c([C@@H](O)CN2CCC3(CC2)CCN(c2cncc(C#N)c2)C3)ccc2c1COC2=O |  |  | 
3 h | 19.3 mL/min/kg | 4.7 L/kg | 100% | 2 µM·kg·h/mg |  | Cc1c([C@@H](O)CN2CCC3(CC2)CCN(c2ccc(C#N)cn2)C3)ccc2c1COC2=O |  |  | fraction unbound (in vivo [27]): 0.27

More lines, now with the values behind:

SMILES | half-life (in vivo [4]) | clearance (Rattus norvegicus [5]) | Vd (in vivo [6]) | bioavailability (in vivo [7]) | AUC/dose (Rattus norvegicus [8]) | IC50 ([15]; read-out: IC50) | Ratio IC50 (Homo sapiens [11]) | IC50 [13] | also measured
NS(=O)(=O)c1cc2c(cc1Cl)NCNS2(=O)=O [HYDROCHLOROTHIAZIDE] |  |  |  |  |  |  |  |  | Activity (Rattus norvegicus [10]): -10.5 mmHg
Cc1c([C@@H](O)CN2CCC3(CC2)CC(=O)N(c2cncc(C#N)c2)C3)ccc2c1COC2=O |  |  |  |  |  | 10 nM | 180 | 1800 nM | 
Cc1c([C@@H](O)CN2CCC3(CC2)CCN(c2ccc(S(C)(=O)=O)cn2)C3)ccc2c1COC2=O | 1.8 h | 24 mL/min/kg | 3.5 L/kg | 51% | 0.7 µM·kg·h/mg |  |  |  | Activity (Rattus norvegicus [1]): -20.3 mmHg; IC50 [2]: 60 nM; concentration at 72 h [3]: 162 nM; Vd [16]: 6.9 L/kg; AUCt (Canis familiaris): 0.66 µM·h; IC50 [9]: 29 nM; half-life [17]: 1.7 h
COc1ccc(N2CCC3(CCN(C[C@H](O)c4ccc5c(c4C)COC5=O)CC3)C2)cn1 |  |  |  |  |  | 1000 nM | 303 | 3300 nM | 
Cc1c([C@@H](O)CN2CCC3(CC2)CCN(c2ccc(C(C)(C)O)nc2)C3)ccc2c1COC2=O |  |  |  |  |  |  |  | 29000 nM | IC50 ([15]; hek293): Not Active
Cc1c([C@@H](O)CN2CCC3(CC2)CC(=O)N(c2ccc(S(C)(=O)=O)nc2)C3)ccc2c1COC2=O |  |  |  |  |  |  |  | > 60000 nM | 
Cc1c([C@@H](O)CN2CCC3(CC2)CCN(c2ccc(C#N)nc2)C3)ccc2c1COC2=O |  |  |  |  |  |  | 13 | 1200 nM | 
Cc1nc(N2CCC3(CCN(C[C@H](O)c4ccc5c(c4C)COC5=O)CC3)C2)ccc1S(C)(=O)=O |  |  |  |  |  |  | 101 | 7900 nM | 
Cc1c([C@@H](O)CN2CCC3(CC2)CC(=O)N(c2ccc(C#N)cn2)C3)ccc2c1COC2=O |  |  |  |  |  | 10 nM | 180 | 1800 nM | 
